A word on the Kd: it is the free concentration of one partner at which half of the binding sites on the other are occupied at equilibrium, for simple one-to-one binding. Low values mean a tighter complex, high ones a looser complex.

The record followed here is patent US20240252488A1 (KOREA RESEARCH INSTITUTE OF CHEMICAL TECHNOLOGY, priority 2020, published 2024).

In one test the target is T1, MLKL (Homo sapiens, UniProt Q8NB16).
T1 sequence (Q8NB16 1-471): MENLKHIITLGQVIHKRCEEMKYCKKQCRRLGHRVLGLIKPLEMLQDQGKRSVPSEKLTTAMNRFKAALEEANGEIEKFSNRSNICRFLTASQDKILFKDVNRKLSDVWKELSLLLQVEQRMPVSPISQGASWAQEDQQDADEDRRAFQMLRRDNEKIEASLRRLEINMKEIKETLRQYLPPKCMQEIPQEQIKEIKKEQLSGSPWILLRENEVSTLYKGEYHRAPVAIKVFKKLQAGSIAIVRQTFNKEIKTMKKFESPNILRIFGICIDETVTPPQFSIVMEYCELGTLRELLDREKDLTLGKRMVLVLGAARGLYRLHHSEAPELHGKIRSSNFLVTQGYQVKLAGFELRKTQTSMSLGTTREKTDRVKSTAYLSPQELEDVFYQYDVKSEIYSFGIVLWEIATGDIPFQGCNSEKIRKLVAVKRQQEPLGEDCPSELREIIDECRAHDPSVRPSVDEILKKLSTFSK
As to the kind of experiment: Measurement of binding affinity with MLKL receptor (competitive binding assay, Kd). Also noted: made in house; host or cells: HEK 293 cell line (T7 phage in E. coli BL21-derived host is also described). On the procedure:
Measurement of Binding Affinity with MLKL Receptor (Competitive Binding Assay)
The binding affinity was evaluated by measuring the Kd value in the following method.
To prepare kinase-tagged T7 phage strains in an E. coli host derived from the BL21 strain, E. coli were grown to log-phase and infected with T7 phage and incubated with shaking at 32° C. until lysis. The lysates were centrifuged and filtered to remove cell debris. For kinase production, it was expressed in human embryonic kidney cell line (HEK 293 cell line), and subsequently tagged with DNA for qPCR detection.
The liganded beads were blocked with excess biotin and washed with blocking buffer (SeaBlock (Pierce), 1% BSA, 0.05% Tween 20, 1 mM DTT) to remove unbound ligand and to reduce non-specific binding. […] Test compounds were prepared as 111× stocks in 100% DMSO.
The compounds were then diluted directly into the assays such that the final concentration of DMSO was 0.9%. All reactions performed in polypropylene 384-well plate. Each was a final volume of 0.02 ml. […] The kinase concentration in the eluates was measured by qPCR.

In a further test the test system is FADD−/− Jurkat cells. Briefly: Necroptosis inhibition assay, TNF-α-induced necroptosis (CellTiter-Glo 2.0). Conditions: TNF-α 15 ng/mL; for Necroptosis inhibition assay (Rescue %) 1 μM: compound 1 μM; for Necroptosis inhibition assay (Rescue %) 10 μM: compound 10 μM. In kind it is cell-based, human. On the procedure:
Necroptosis Inhibition Assay
Necroptosis inhibition was evaluated by the following method.
80 μL of FADD gene-defective human T lymphocyte cells (FADD−/− Jurkat cells) were equally distributed into each well at 5.0×10^5 cells/mL in a white 96-well plate with a transparent bottom. 20 μL of the medium containing test compound was treated in each well so that the final concentration of the compound was 0.1, 1, and 10 μM, and reacted at room temperature for 30 minutes. After the 30-minute reaction was over, TNF (tumor necrosis factor)-α was treated in the corresponding well so that the final concentration of TNF-α was 15 ng/mL in order to induce necroptosis. It was cultured in a 5% CO2, 37° C. incubator for 20 to 24 hours.
After incubation, the 96-well plate was left at room temperature for 30 minutes. After 30 minutes, Promega's CellTiter-Glo 2.0 reagent was diluted 1:3 with PBS and 100 μL of the diluted solution was added to each well to confirm cell viability by measuring the amount of ATP. After the treatment, the plate was shielded from light and incubated at room temperature for 2 minutes with orbital shaking, and then left at room temperature for 10 minutes without shaking. After measuring the luminescence at 0.5 seconds per well using a plate scanner, the cytotoxicity and necroptosis inhibition rate for the compound were calculated using the measured values.
In general terms: Cellular ATP, detected with luciferase, serves as a proxy for viable cell number.

The compound `Nc1ncc(-c2cnn(C3CCN(CCOCCOCCNC(=O)C4CN(c5ccc6c(c5)C(=O)N(C5CCC(=O)NC5=O)C6=O)C4)CC3)c2)nc1C(=O)O[C@@H](C(=O)Nc1ccc(F)cc1)c1ccccc1` (stereo partly drawn) [TDH-116, (R)-2-((4-fluorophenyl)amino)-2-oxo-1-phenylethyl 3-amino-6-(1-(1-(2-(2-(2-(1-(2-(2,6-dioxopiperidin-3-yl)-1,3-dioxoisoindolin-5-yl)azetidine-3-carboxamido)ethoxy)ethoxy)ethyl)piperidin-4-yl)-1H-pyrazol-4-yl)pyrazine-2-carboxylate] displayed a Kd at MLKL of 0.002 µM. Also, in the test with FADD−/− Jurkat cells, the “Necroptosis inhibition assay (Rescue %) 1 μM” value is 16.8% and the “Necroptosis inhibition assay (Rescue %) 10 μM” value is listed as 42.8%.

Consider `Nc1ncc(-c2cnn(C3CCN(C(=O)CCCCCNC(=O)CNc4ccc5c(c4)C(=O)N(C4CCC(=O)NC4=O)C5=O)CC3)c2)nc1C(=O)O[C@@H](C(=O)Nc1ccc(F)cc1)c1ccccc1` (stereo partly drawn) [TDH-123, (R)-2-((4-fluorophenyl)amino)-2-oxo-1-phenylethyl 3-amino-6-(1-(1-(6-(2-((2-(2,6-dioxopiperidin-3-yl)-1,3-dioxoisoindolin-5-yl)amino)acetamido)hexanoyl)piperidin-4-yl)-1H-pyrazol-4-yl)pyrazine-2-carboxylate], for which, at MLKL, the affinity, expressed as Kd, was 0.00089 µM. Further, in the test on FADD−/− Jurkat cells, the “Necroptosis inhibition assay (Rescue %) 1 μM” value is reported as 8.69% and the “Necroptosis inhibition assay (Rescue %) 10 μM” value was 8.92%.

The compound `Cl.Nc1ncc(-c2cnn(C3CCNCC3)c2)nc1C(=O)N[C@@H](C(=O)Nc1ccc(F)cc1)c1ccccc1` [TDH-099, (R)-3-amino-N-(2-((4-fluorophenyl)amino)-2-oxo-1-phenylethyl)-6-(1-(piperidin-4-yl)-1H-pyrazol-4-yl)pyrazine-2-carboxamide hydrochloride] returned a dissociation constant (Kd) at MLKL of 0.011 µM. Also, the “Necroptosis inhibition assay (Rescue %) 1 μM” value in the test with FADD−/− Jurkat cells is 18.18%.

Compound `Nc1ncc(C2=CCN(C(=O)COCCOCCNC(=O)CNc3ccc4c(c3)C(=O)N(C3CCC(=O)NC3=O)C4=O)CC2)cc1C(=O)O[C@@H](C(=O)Nc1ccc(F)cc1)c1ccccc1` (stereo partly drawn) [TDH-085, (R)-2-((4-fluorophenyl)amino)-2-oxo-1-phenylethyl 6-amino-1′-(2-(2-(2-(2-((2-(2,6-dioxopiperidin-3-yl)-1,3-dioxoisoindolin-5-yl)amino)acetamido)ethoxy)ethoxy)acetyl)-1′,2′,3′,6′-tetrahydro-[3,4′-bipyridine]-5-carboxylate] registered a Kd at MLKL of 0.012 µM. Moreover, the “Necroptosis inhibition assay (Rescue %) 1 μM” value in the test on FADD−/− Jurkat cells is given as 5.02%.

`Nc1ncc(C2=CCN(C(=O)CCCCCNc3ccc4c(c3)C(=O)N(C3CCC(=O)NC3=O)C4=O)CC2)cc1C(=O)O[C@@H](C(=O)Nc1ccc(F)cc1)c1ccccc1` (stereo partly drawn) [TDH-075, (R)-2-((4-fluorophenyl)amino)-2-oxo-1-phenylethyl 6-amino-1′-(6-((2-(2,6-dioxopiperidin-3-yl)-1,3-dioxoisoindolin-5-yl)amino)hexanoyl)-1′,2′,3′,6′-tetrahydro-[3,4′-bipyridine]-5-carboxylate] yielded a Kd on MLKL of 0.14 µM. Also, in the test with FADD−/− Jurkat cells, the “Necroptosis inhibition assay (Rescue %) 1 μM” value is reported as 10.02% and the “Necroptosis inhibition assay (Rescue %) 10 μM” value is recorded as 9.05%.

`Nc1ncc(-c2cnn(C3CCN(C(=O)COCCOCCNC(=O)C4CN(c5cccc6c5C(=O)N(C5CCC(=O)NC5=O)C6=O)C4)CC3)c2)nc1C(=O)O[C@@H](C(=O)Nc1ccc(F)cc1)c1ccccc1` (stereo partly drawn) [TDH-192, (R)-2-((4-fluorophenyl)amino)-2-oxo-1-phenylethyl 3-amino-6-(1-(1-(2-(2-(2-(1-(2-(2,6-dioxopiperidin-3-yl)-1,3-dioxoisoindolin-4-yl)azetidine-3-carboxamido)ethoxy)ethoxy)acetyl)piperidin-4-yl)-1H-pyrazol-4-yl)pyrazine-2-carboxylate]: the Kd on MLKL was 0.0061 µM. For the same compound, in the test with FADD−/− Jurkat cells, the “Necroptosis inhibition assay (Rescue %) 1 μM” value came to 50.37% and the “Necroptosis inhibition assay (Rescue %) 10 μM” value was 45.32%.

`Nc1ncc(-c2cnn(C3CCN(CCCCCCCCCCNC(=O)CNc4ccc5c(c4)C(=O)N(C4CCC(=O)NC4=O)C5=O)CC3)c2)nc1C(=O)O[C@@H](C(=O)Nc1ccc(F)cc1)c1ccccc1` (stereo partly drawn) [TDH-162, (R)-2-((4-fluorophenyl)amino)-2-oxo-1-phenylethyl 3-amino-6-(1-(1-(10-(2-((2-(2,6-dioxopiperidin-3-yl)-1,3-dioxoisoindolin-5-yl)amino)acetamido)decyl)piperidin-4-yl)-1H-pyrazol-4-yl)pyrazine-2-carboxylate]: the Kd at MLKL came out at 0.011 µM. Besides, in the test on FADD−/− Jurkat cells, the “Necroptosis inhibition assay (Rescue %) 1 μM” value is recorded as 36.55% and the “Necroptosis inhibition assay (Rescue %) 10 μM” value was 26.25%.

Compound `Nc1nccnc1C(=O)O[C@H](C(=O)Nc1ccc(F)cc1)c1ccccc1` [TDH-002, (S)-2-((4-fluorophenyl)amino)-2-oxo-1-phenylethyl 3-aminopyrazine-2-carboxylate] yielded a dissociation constant (Kd) on MLKL greater than 10 µM. Further, the “Necroptosis inhibition assay (Rescue %) 1 μM” value in the test on FADD−/− Jurkat cells was determined as 6.35%.

Compound `Nc1ncc(-c2cnn(C3CCN(CCOCCOCCNc4cccc5c4C(=O)N(C4CCC(=O)NC4=O)C5=O)CC3)c2)nc1C(=O)O[C@@H](C(=O)Nc1ccc(F)cc1)c1ccccc1` (stereo partly drawn) [TDH-121, (R)-2-((4-fluorophenyl)amino)-2-oxo-1-phenylethyl 3-amino-6-(1-(1-(2-(2-(2-((2-(2,6-dioxopiperidin-3-yl)-1,3-dioxoisoindolin-4-yl)amino)ethoxy)ethoxy)ethyl)piperidin-4-yl)-1H-pyrazol-4-yl)pyrazine-2-carboxylate] registered a Kd on MLKL of 0.0046 µM. Also, the “Necroptosis inhibition assay (Rescue %) 1 μM” value with FADD−/− Jurkat cells is reported as 2.96%.

Compound `Nc1ncc(-c2cnn(C3CCN(CCCCCCCCCCNC(=O)CNc4cccc5c4C(=O)N(C4CCC(=O)NC4=O)C5=O)CC3)c2)nc1C(=O)O[C@@H](C(=O)Nc1ccc(F)cc1)c1ccccc1` (stereo partly drawn) [TDH-161, (R)-2-((4-fluorophenyl)amino)-2-oxo-1-phenylethyl 3-amino-6-(1-(1-(10-(2-((2-(2,6-dioxopiperidin-3-yl)-1,3-dioxoisoindolin-4-yl)amino)acetamido)decyl)piperidin-4-yl)-1H-pyrazol-4-yl)pyrazine-2-carboxylate] displayed a Kd on MLKL of 0.029 µM. Also, in the test with FADD−/− Jurkat cells, the “Necroptosis inhibition assay (Rescue %) 1 μM” value worked out at 25.81% and the “Necroptosis inhibition assay (Rescue %) 10 μM” value is reported as 35.81%.

`Nc1ncc(C2=CCN(C(=O)CCCCCNC(=O)C3CN(c4ccc5c(c4)C(=O)N(C4CCC(=O)NC4=O)C5=O)C3)CC2)cc1C(=O)O[C@@H](C(=O)Nc1ccc(F)cc1)c1ccccc1` (stereo partly drawn) [TDH-092, (R)-2-((4-fluorophenyl)amino)-2-oxo-1-phenylethyl 6-amino-1′-(6-(1-(2-(2,6-dioxopiperidin-3-yl)-1,3-dioxoisoindolin-5-yl)azetidine-3-carboxamido)hexanoyl)-1′,2′,3′,6′-tetrahydro-[3,4′-bipyridine]-5-carboxylate] gave a Kd at MLKL of 0.12 µM. The “Necroptosis inhibition assay (Rescue %) 1 μM” value in the test on FADD−/− Jurkat cells turned out to be 2.1%.

In turn, `Nc1ncc(-c2cn(C3CCN(CC4CCN(C(=O)C5CCN(c6ccc7c(c6)C(=O)N(C6CCC(=O)NC6=O)C7=O)CC5)CC4)CC3)nn2)nc1C(=O)OC(C(=O)Nc1ccc(F)cc1)c1ccccc1` (stereo not shown) [TDH-221, 2-((4-fluorophenyl)amino)-2-oxo-1-phenylethyl 3-amino-6-(1-(1-((1-(1-(2-(2,6-dioxopiperidin-3-yl)-1,3-dioxoisoindolin-5-yl)piperidine-4-carbonyl)piperidin-4-yl)methyl)piperidin-4-yl)-1H-1,2,3-triazol-4-yl)pyrazine-2-carboxylate] had a Kd at MLKL of 0.027 µM. In the test with FADD−/− Jurkat cells, the “Necroptosis inhibition assay (Rescue %) 1 μM” value came to 53.65% and the “Necroptosis inhibition assay (Rescue %) 10 μM” value is recorded as 54.23%.
